For 45 molecules, IC50, selectivity ratio and Km results are on record in ChEMBL document CHEMBL1141174, “Quantitative structure-activity relationship analysis of inhibitors of the nicotine metabolizing CYP2A6 enzyme” (J Med Chem, 2005).

In data set [1] the target is T1, Cytochrome P450 2A5 (Mus musculus, UniProt P20852).
T1 sequence (P20852 whole entry): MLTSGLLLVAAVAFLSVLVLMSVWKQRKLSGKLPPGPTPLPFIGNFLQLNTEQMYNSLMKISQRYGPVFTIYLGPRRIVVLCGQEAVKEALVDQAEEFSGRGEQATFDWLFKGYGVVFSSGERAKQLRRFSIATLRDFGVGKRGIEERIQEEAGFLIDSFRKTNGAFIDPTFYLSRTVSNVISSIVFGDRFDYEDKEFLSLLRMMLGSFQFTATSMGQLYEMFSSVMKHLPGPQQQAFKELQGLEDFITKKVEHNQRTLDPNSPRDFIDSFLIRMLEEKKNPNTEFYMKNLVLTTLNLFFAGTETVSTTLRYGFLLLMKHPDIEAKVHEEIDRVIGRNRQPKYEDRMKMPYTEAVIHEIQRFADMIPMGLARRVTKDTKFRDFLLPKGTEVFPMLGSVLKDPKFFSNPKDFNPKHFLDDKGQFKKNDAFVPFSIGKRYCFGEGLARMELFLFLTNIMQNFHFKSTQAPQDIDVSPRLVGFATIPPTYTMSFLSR
As to the kind of experiment: Inhibitory concentration against mouse cytochrome P450 2A5.

In data set [2] the target is T2, Cytochrome P450 2A6 (Homo sapiens, UniProt P11509).
T2 sequence (P11509 whole entry): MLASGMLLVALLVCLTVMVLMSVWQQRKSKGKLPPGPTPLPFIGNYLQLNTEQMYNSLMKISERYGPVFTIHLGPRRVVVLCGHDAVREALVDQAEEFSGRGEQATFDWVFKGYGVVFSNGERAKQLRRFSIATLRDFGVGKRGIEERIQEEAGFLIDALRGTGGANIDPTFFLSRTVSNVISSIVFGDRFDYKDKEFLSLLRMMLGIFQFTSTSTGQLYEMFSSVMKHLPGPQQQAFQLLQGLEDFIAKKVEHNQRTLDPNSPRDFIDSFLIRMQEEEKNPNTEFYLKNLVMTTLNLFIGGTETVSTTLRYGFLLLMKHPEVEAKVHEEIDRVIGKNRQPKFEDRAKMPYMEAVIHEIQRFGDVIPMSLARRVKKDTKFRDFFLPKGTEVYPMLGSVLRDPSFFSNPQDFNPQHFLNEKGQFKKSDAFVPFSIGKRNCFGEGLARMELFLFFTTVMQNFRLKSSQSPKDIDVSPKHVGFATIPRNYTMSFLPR
The data set can be described thus: Inhibitory concentration against human cytochrome P450 2A6.

Data set [3] has as its system CYP2A6 / CYP2A5. As to the kind of experiment: Ratio of IC50 for human CYP2A6 to that of mouse CYP2A5 was determined.
Data set [4] addresses T3, CYP2A6 (Homo sapiens, UniProt P11509).
T3 sequence (P11509 whole entry): T2 sequence (P11509 whole entry)
As to the kind of experiment: Michaelis-Menten constant of compound against human cytochrome P450 2A6 enzyme. The class given is ADME.

Substrate in data set [5]: O=c1ccc2ccccc2o1
As to the kind of experiment: Michaelis-Menten constant of compound against mouse cytochrome P450 2A5 enzyme. Format: ADME.

Bounds are passed on as bounds.

One may read the IC50 as the midpoint of a concentration-inhibition curve. A high value points to weaker potency in that assay. As for `c1ccc2ccccc2c1` [NAPHTHALENE], the IC50 in data set [1] came to 74 µM; in data set [2] it was 25 µM. The selectivity ratio in data set [3] worked out at 0.34.
Regarding `Cc1nccc2ccccc12`, the IC50 in data set [1] was 170 µM; in data set [2], 60 µM. In addition, the selectivity ratio in data set [3] came to 0.36.
For `c1ccc2c(c1)ccc1ccccc12` [PHENANTHRENE], in that order: 26 µM, 97 µM and 4.
For `Oc1cccc2ccccc12` [1-NAPHTHOL], in that order: 140 µM, 130 µM and 0.96.
For the molecule `Clc1ccc2ccc(Cl)cc2c1`, the IC50 in data set [1] was 4.4 µM; in data set [2], over 100 µM.
Regarding `Clc1cc2cc(Cl)c(Cl)c(Cl)c2cc1Cl`, the IC50 is 300 µM in data set [1] and over 600 µM in data set [2].
`Cc1ccc2c(C)cccc2c1`: the IC50 is 32 µM in data set [1] and 130 µM in data set [2]. Further, the selectivity ratio in data set [3] was found to be 4.
For `Cc1cccc2ccccc12`, in that order: 24 µM, 34 µM and 1.4.
For `CCc1ccc2ccccc2c1` the same measures were 4.8 µM, 12 µM and 2.4.
For `Cc1cccc2c(C)cccc12`, in that order: 34 µM, 31 µM and 0.91.
Turning to `CC(=O)c1ccc2ccc(C)cc2c1`, the IC50 in data set [1] is 4.1 µM; in data set [2], 6.7 µM. For the same molecule, in data set [3], the selectivity ratio worked out at 1.6.
As to `CN1C(=O)CCC1c1cccnc1` (single isomer, unassigned) [COTININE], 1500 µM corresponded to half-maximal inhibition in data set [1] (IC50). Moreover, the selectivity ratio in data set [3] worked out at 42.8.
In the case of `Brc1ccc(Br)cc1`, the IC50 in data set [1] amounted to 2.2 µM; in data set [2], 59 µM. Besides, in data set [3], the selectivity ratio amounted to 48.5.
With `O=Cc1ccccc1` [BENZALDEHYDE], the IC50 worked out at 3.28 µM in data set [1] and 3.92 µM in data set [2].
For `Cc1ccc2cccc(C)c2c1`, the IC50 in data set [1] came to 14 µM; in data set [2] it was 31 µM. The selectivity ratio in data set [3] was determined as 1.2.
For `O=C1CCCc2ccccc21`, in that order: 14 µM, 52 µM and 3.6.
For `Clc1cccc2c(Cl)cccc12` the same measures were 2.4 µM, 2.5 µM and 1.04.
With `Clc1ccc(Cl)cc1` [1,4-DICHLOROBENZENE], the IC50 in data set [1] amounted to 1 µM; in data set [2], 17 µM. Also, in data set [3], the selectivity ratio stood at 30.4.
For `Cc1cnc2ccccc2c1` the same measures were 100 µM, 200 µM and 1.9.
For `Fc1ccc2ccccc2c1` the same measures were 7.3 µM, 0.67 µM and 0.09.
`Clc1ccc2ccccc2c1Cl`: the IC50 turned out to be 5.5 µM in data set [1] and 15 µM in data set [2].
As for `Clc1ccc(-c2ccccc2)cc1`, the 50% inhibitory concentration (IC50) in data set [1] amounted to 18 µM; in data set [2] it was 150 µM. Besides, the selectivity ratio in data set [3] is 8.2.
As for `Cc1ccc2ccccc2c1`, the concentration for half-maximal inhibition (IC50) came out at 7 µM in data set [1] and 2.4 µM in data set [2]. Also, the selectivity ratio in data set [3] was 0.34.
For `Clc1ccc2ccccc2c1` the same measures were 12 µM, 5.4 µM and 0.45.
`Oc1ccc2ccccc2c1` [BETANAPHTHOL]: the IC50 in data set [1] came out at 78 µM; in data set [2], 140 µM. Further, the selectivity ratio in data set [3] was 1.8.
Broadly, the Km is the concentration of substrate that gives half-maximal velocity. Consider `O=c1ccc2ccccc2o1` [COUMARIN], for which, in data set [4], the Km stood at 0.74 µM.
On to `COc1cc2c(cc1OC)CC(=O)CC2`, for which the IC50 in data set [1] was determined as 210 µM; in data set [2] it was 2000 µM. Also, the selectivity ratio in data set [3] amounted to 9.2.
As for `O=C1CCc2ccccc2C1`, the results for the IC50 in data set [1] and in data set [2] were 9.7 µM and 21 µM, respectively. Moreover, in data set [3], the selectivity ratio came to 2.2.
For the molecule `Cc1ccc(CCN)cc1`, the IC50 in data set [1] was 4 µM; in data set [2], 5.3 µM.
For `Cc1ccc(C=O)cc1`, in data set [1], the IC50 was 20.9 µM.
Regarding `Cc1ccc2ccccc2n1` [QUINALDINE], the IC50 in data set [1] came to 80 µM; in data set [2], 190 µM. Also, the selectivity ratio in data set [3] was 2.4.
Turning to `Clc1cc2ccccc2cc1Cl`, the results for the IC50 in data set [1] and in data set [2] were 60 µM and over 60 µM, respectively.
Consider `Brc1ccc2ccccc2c1`, for which the IC50 in data set [1] worked out at 2.5 µM; in data set [2] it was 0.55 µM. Also, the selectivity ratio in data set [3] turned out to be 0.22.
Regarding `Clc1cccc2ccccc12`, the 50% inhibitory concentration (IC50) in data set [1] was 14 µM; in data set [2], 18 µM. In data set [3], the selectivity ratio stood at 1.3.
For `CN1CCC[C@@H]1c1cccnc1` [R-NICOTINE] the same measures were 160 µM, 580 µM and 3.8.
Turning to `COc1ccc(C=O)cc1` [ANISALDEHYDE], the results for the IC50 in data set [1] and in data set [2] were 5.9 µM and 7.1 µM, respectively.
For `CC(N)Cc1ccccc1` (stereo not drawn) [AMPHETAMINE], in that order: 2.85 µM and 3.5 µM.
`Cc1ccc2cc(C)ccc2c1`: the IC50 in data set [1] worked out at 1.7 µM; in data set [2], 10 µM. In addition, in data set [3], the selectivity ratio was determined as 5.9.
For `Cc1cc2ccccc2cn1`, in that order: 4.8 µM, 25 µM and 5.1.
For `Cc1ccc2ccc(C)nc2c1` the same measures were 180 µM, 400 µM and 2.2.
Consider `Cc1ccc2ccc(C)cc2c1`, for which the figures for the IC50 in data set [1] and in data set [2] were 1.4 µM and 1.7 µM, respectively.
Take `Cc1cc(C)c2ccccc2n1`: the figures for the 50% inhibitory concentration (IC50) in data set [1] and in data set [2] were 110 µM and 830 µM, respectively. For the same molecule, the selectivity ratio in data set [3] came out at 7.7.
For `Clc1ccccc1-c1ccccc1` the same measures were 13 µM, 36 µM and 2.8.
`NCCc1ccccc1` [PHENETHYLAMINE]: the IC50 in data set [1] worked out at 1000 µM; in data set [2], 38.9 µM.

B1: Cytochrome P450 2A5 (Mus musculus) (protein)
chain: T1 sequence (P20852 whole entry)
On to B1, for which, in data set [5], the Km is 0.64 µM.
